# Experimental data reported in US11472845B2, “Antitumor peptide and use thereof” (TOAGOSEI CO., LTD., priority 2019, dated 2022).
# Where two headings read alike, the source gives them in different places. Ends that are not written are not given here.
# System: human gastric cancer cell lines (FU97)
# Assay type: cell-based
# Conditions: for Cell viability (%) of test cells: human, 48 h
# Procedure: The antitumor activity of Sample 1 synthesized in the above Test Example 1 with respect to human-derived cultured tumor cells was evaluated. Currently commercially available human gastric cancer cell lines (FU97), human alveolar basal epithelial adenocarcinoma cell lines (A549), human breast cancer cell lines (MDA-MB-231), and human melanoma cell lines (A375) were prepared as test tumor cells. In addition, normal human mammary epithelial cell culture lines (MCF-12F) were prepared for comparison. A DMEM culture medium including 10 μg/mL of insulin, 50 unit/mL of penicillin, 50 μg/mL of streptomycin, and 10% fetal bovine serum (FBS) (product, commercially available from Wako Pure Chemical Industries, Ltd.) The above five types of cell lines were cultured in respective designated culture solutions. The cell lines were cultured so that the number of cells per well in a 96-hole (well) plate was about 5×10^3. Here, an amount of the culture solution per well was 100 μL. The 96-well plate was then placed in a CO2 incubator. Then, pre-incubation was performed under conditions of 37° C. and 5% CO2 for about 1 day (about 23 hours). Then, regarding the culture solution for the peptide addition area, culture solutions containing Sample 1 for each concentration were prepared so that the concentration of Sample 1 was 6.25 μM, 12.5 μM or 25 μM and supplied to wells (that is, wells after the pre-incubation) in which 90 μL of cells to be evaluated were cultured in each well. On the other hand, regarding the culture solution for the comparative test area, a culture solution to which no Sample 1 was added was prepared, and supplied to wells (that is, wells after the pre-incubation) in which 90 μL of cells to be evaluated were cultured in each well. The 96-well plate was then placed in a CO2 incubator, and incubated under conditions of 37° C. and 5% CO2 for 48 hours. […] Then, the absorbance at a wavelength of 450 nm (value corrected by the absorbance at a wavelength of 620 nm: A450-A620) was measured based on the reduction of the tetrazolium salt in the culture solution. Then, the cell viability was calculated according to a colorimetric method. In the test areas (test areas 1 to 3) in the peptide addition area, the cell viability of each of the above five types of cell lines was calculated as a relative value when a measured value (measurement absorbance) of the comparative test area in the same cell lines was set as 100%. That is, regarding each of the above five types of cell lines, the cell viability (%) was calculated by dividing the measurement absorbance of the test areas (test areas 1 to 3) in the peptide addition area by the measurement absorbance of the comparative test area in the same cell lines and multiplying by 100.
substance,measurement,setting,value
MACLGFQRHKAQLNLATRTWPCTLLFFLLFIPVFCKKRTLRKTDRKKR-NH2 (cysteines drawn unpaired) [Sample 1],Specific cell viability of test tumor cells,"FU97, 12.5 μM Sample 1, (cell viability of test tumor cells)/(cell viability of MCF-12F cells)×100",23.0
same,Cell viability (%) of test cells,6.25 μM,29.4%
same,Cell viability (%) of test cells,12.5 μM,26.3%
same,Cell viability (%) of test cells,25 μM,30%
